ChEMBL document CHEMBL1201862, “PubChem BioAssay data set” (2004)
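Grown in 96-well plates, cells were treated for 48 hours with each compound at five concentrations. Insufficient inhibition: endpoint recorded as highest concentration tested. GI50 marks 50% less growth.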 The source made the active and inactive calls. No stated cut-off is given here; in the data, active = GI50 up to about 1.1 µM and inactive = higher. Peptide text beside a SMILES is read from it. * marks the point of attachment. Boc = CC(C)(C)OC(=O)*

Assays:
Assay in all cases: inhibition of tumour cell growth, NCI panel, 48 h
NCI-H23 = system: NCI-H23
SK-OV-3 = system: SK-OV-3
KM12 = system: KM12
HCT-116 = system: HCT-116
DU-145 = system: DU-145
786-0 = system: 786-0
IGROV-1 = system: IGROV-1
HOP-92 = system: HOP-92
K562 = system: K562
HOP-62 = system: HOP-62
CCRF-CEM = system: CCRF-CEM
UACC-62 = system: UACC-62
MCF7 = system: MCF7
SR = system: SR
SNB-19 = system: SNB-19
RXF 393 = system: RXF 393
COLO 205 = system: COLO 205
A549 = system: A549
OVCAR-3 = system: OVCAR-3
BT-549 = system: BT-549
RPMI-8226 = system: RPMI-8226
HCT-15 = system: HCT-15
U-251 = system: U-251
SF-295 = system: SF-295
MOLT-4 = system: MOLT-4
SK-MEL-5 = system: SK-MEL-5
MDA-MB-231 = system: MDA-MB-231
OVCAR-4 = system: OVCAR-4
HL-60 = system: HL-60
M14 = system: M14
UACC-257 = system: UACC-257
NCI/ADR-RES = system: NCI/ADR-RES
PC-3 = system: PC-3
MDA-N = system: MDA-N
HT-29 = system: HT-29
MDA-MB-435 = system: MDA-MB-435
CAKI-1 = system: CAKI-1
SN12C = system: SN12C
SF-539 = system: SF-539
NCI-H226 = system: NCI-H226
OVCAR-8 = system: OVCAR-8
SK-MEL-2 = system: SK-MEL-2
LOX IMVI = system: LOX IMVI
SNB-75 = system: SNB-75
TK-10 = system: TK-10
NCI-H460 = system: NCI-H460
T47D = system: T47D
Malme-3M = system: Malme-3M
SK-MEL-28 = system: SK-MEL-28
UO-31 = system: UO-31
Hs-578T = system: Hs-578T
A498 = system: A498
SW-620 = system: SW-620
SF-268 = system: SF-268
NCI-H522 = system: NCI-H522
EKVX = system: EKVX
OVCAR-5 = system: OVCAR-5
ACHN = system: ACHN

COC(=O)C1=CS/C(=C2\S[C@@H]3[C@H](S2)[C@H]2C=C[C@@H]3C2)S1
GI50 (NCI-H23): > 100 µM (inactive)
GI50 (SK-OV-3): 47 µM (inactive)
GI50 (KM12): > 100 µM (inactive)
GI50 (HCT-116): 8.09 µM (inactive)
GI50 (DU-145): > 100 µM (inactive)
GI50 (786-0): 92 µM (inactive)
GI50 (IGROV-1): 39.2 µM (inactive)
GI50 (HOP-92): 79.8 µM (inactive)
GI50 (K562): 2.74 µM (inactive)
GI50 (HOP-62): > 100 µM (inactive)
GI50 (CCRF-CEM): 17.6 µM (inactive)
GI50 (UACC-62): 12.5 µM (inactive)
GI50 (MCF7): 10.9 µM (inactive)
GI50 (SR): 3.4 µM (inactive)
GI50 (SNB-19): 77.1 µM (inactive)
GI50 (RXF 393): 29.6 µM (inactive)
GI50 (COLO 205): 32.8 µM (inactive)
GI50 (A549): 30.8 µM (inactive)
GI50 (OVCAR-3): 33.2 µM (inactive)
GI50 (BT-549): > 100 µM (inactive)
GI50 (RPMI-8226): 30.7 µM (inactive)
GI50 (HCT-15): 17.3 µM
GI50 (U-251): 8.49 µM (inactive)
GI50 (SF-295): 2.96 µM (inactive)
GI50 (MOLT-4): 5.19 µM (inactive)
GI50 (SK-MEL-5): 17.9 µM (inactive)
GI50 (MDA-MB-231): > 100 µM (inactive)
GI50 (OVCAR-4): > 100 µM (inactive)
GI50 (HL-60): 9.82 µM (inactive)
GI50 (M14): 48.3 µM (inactive)
GI50 (UACC-257): 66.5 µM (inactive)
GI50 (NCI/ADR-RES): 9.66 µM (inactive)
GI50 (PC-3): 51.6 µM (inactive)
GI50 (MDA-N): 3.49 µM (inactive)
GI50 (HT-29): 13.1 µM (inactive)
GI50 (MDA-MB-435): 2.06 µM (inactive)
GI50 (CAKI-1): 7.14 µM (inactive)
GI50 (SN12C): > 100 µM (inactive)
GI50 (SF-539): 6.19 µM (inactive)
GI50 (NCI-H226): 87.7 µM (inactive)
GI50 (OVCAR-8): > 100 µM (inactive)
GI50 (SK-MEL-2): 32.5 µM (inactive)
GI50 (LOX IMVI): 13.1 µM (inactive)
GI50 (SNB-75): 46.1 µM (inactive)
GI50 (TK-10): > 100 µM (inactive)
GI50 (NCI-H460): 34.9 µM (inactive)
GI50 (T47D): > 100 µM (inactive)
GI50 (Malme-3M): > 100 µM (inactive)
GI50 (SK-MEL-28): 62.7 µM (inactive)
GI50 (UO-31): 46.1 µM (inactive)
GI50 (Hs-578T): 81.3 µM (inactive)
GI50 (A498): 4.52 µM (inactive)
GI50 (SW-620): 13.1 µM (inactive)
GI50 (SF-268): 38.7 µM (inactive)

CSCCC(NC(=O)C(CC(C)C)NC(=O)CNC(=O)OC(C)(C)C)C(=O)N(C)C (stereo not drawn) (Boc-Gly-Leu-Met-NMe2; configuration not given here)
GI50 (NCI-H23): > 100 µM (inactive)
GI50 (SK-OV-3): > 100 µM (inactive)
GI50 (NCI-H522): > 100 µM (inactive)
GI50 (KM12): > 100 µM (inactive)
GI50 (HCT-116): > 100 µM (inactive)
GI50 (DU-145): > 100 µM (inactive)
GI50 (786-0): > 100 µM (inactive)
GI50 (IGROV-1): > 100 µM (inactive)
GI50 (HOP-92): > 100 µM (inactive)
GI50 (K562): > 100 µM (inactive)
GI50 (CCRF-CEM): > 100 µM (inactive)
GI50 (UACC-62): > 100 µM (inactive)
GI50 (MCF7): > 100 µM (inactive)
GI50 (SR): > 100 µM (inactive)
GI50 (SNB-19): > 100 µM (inactive)
GI50 (RXF 393): > 100 µM (inactive)
GI50 (COLO 205): > 100 µM (inactive)
GI50 (A549): > 100 µM (inactive)
GI50 (BT-549): > 100 µM (inactive)
GI50 (HCT-15): > 100 µM
GI50 (U-251): > 100 µM (inactive)
GI50 (EKVX): > 100 µM (inactive)
GI50 (SF-295): > 100 µM (inactive)
GI50 (MOLT-4): > 100 µM (inactive)
GI50 (OVCAR-5): > 100 µM (inactive)
GI50 (SK-MEL-5): > 100 µM (inactive)
GI50 (MDA-MB-231): > 100 µM (inactive)
GI50 (OVCAR-4): > 100 µM (inactive)
GI50 (HL-60): > 100 µM (inactive)
GI50 (M14): > 100 µM (inactive)
GI50 (UACC-257): > 100 µM (inactive)
GI50 (ACHN): > 100 µM (inactive)
GI50 (NCI/ADR-RES): > 100 µM (inactive)
GI50 (PC-3): > 100 µM (inactive)
GI50 (MDA-N): > 100 µM (inactive)
GI50 (HT-29): > 100 µM (inactive)
GI50 (MDA-MB-435): > 100 µM (inactive)
GI50 (CAKI-1): > 100 µM (inactive)
GI50 (SN12C): > 100 µM (inactive)
GI50 (SF-539): > 100 µM (inactive)
GI50 (NCI-H226): > 100 µM (inactive)
GI50 (OVCAR-8): > 100 µM (inactive)
GI50 (SK-MEL-2): > 100 µM (inactive)
GI50 (LOX IMVI): > 100 µM (inactive)
GI50 (SNB-75): 0.0272 µM (active)
GI50 (TK-10): > 100 µM (inactive)
GI50 (T47D): > 100 µM (inactive)
GI50 (Malme-3M): 87.7 µM (inactive)
GI50 (SK-MEL-28): > 100 µM (inactive)
GI50 (UO-31): > 100 µM (inactive)
GI50 (Hs-578T): 4 µM (inactive)
GI50 (A498): > 100 µM (inactive)
GI50 (SW-620): > 100 µM (inactive)
GI50 (SF-268): > 100 µM (inactive)

CC(C)CC1c2[nH]c3ccccc3c2C[C@H]2C(=O)NC(CCCCNC(=O)OC(C)(C)C)C(=O)N12 (stereo partly specified)
GI50 (NCI-H23): 33 µM (inactive)
GI50 (NCI-H522): 19.5 µM (inactive)
GI50 (KM12): 17 µM (inactive)
GI50 (HCT-116): 30 µM (inactive)
GI50 (DU-145): 38 µM (inactive)
GI50 (786-0): 20.9 µM (inactive)
GI50 (IGROV-1): 37.1 µM (inactive)
GI50 (HOP-92): 31 µM (inactive)
GI50 (K562): 32 µM (inactive)
GI50 (HOP-62): 56.2 µM (inactive)
GI50 (UACC-62): 27 µM (inactive)
GI50 (MCF7): 34.3 µM (inactive)
GI50 (SR): 11.9 µM (inactive)
GI50 (SNB-19): 47.1 µM (inactive)
GI50 (RXF 393): 6.62 µM (inactive)
GI50 (COLO 205): 27.7 µM (inactive)
GI50 (A549): 33.7 µM (inactive)
GI50 (OVCAR-3): 2.36 µM (inactive)
GI50 (BT-549): 25.2 µM (inactive)
GI50 (RPMI-8226): 18.7 µM (inactive)
GI50 (HCT-15): 31.8 µM
GI50 (U-251): 24.7 µM (inactive)
GI50 (EKVX): 51.9 µM (inactive)
GI50 (SF-295): 12.3 µM (inactive)
GI50 (MOLT-4): 11.8 µM (inactive)
GI50 (OVCAR-5): 61.5 µM (inactive)
GI50 (SK-MEL-5): 33.2 µM (inactive)
GI50 (MDA-MB-231): 17 µM (inactive)
GI50 (OVCAR-4): 37.7 µM (inactive)
GI50 (HL-60): 21.7 µM (inactive)
GI50 (M14): 35.3 µM (inactive)
GI50 (UACC-257): 44.8 µM (inactive)
GI50 (ACHN): 29 µM (inactive)
GI50 (NCI/ADR-RES): 33.4 µM (inactive)
GI50 (PC-3): 17.9 µM (inactive)
GI50 (MDA-N): 37.5 µM (inactive)
GI50 (HT-29): 23.5 µM (inactive)
GI50 (MDA-MB-435): 33 µM (inactive)
GI50 (CAKI-1): 37.3 µM (inactive)
GI50 (SN12C): 33.9 µM (inactive)
GI50 (NCI-H226): 55.3 µM (inactive)
GI50 (OVCAR-8): 34.2 µM (inactive)
GI50 (SK-MEL-2): 21.6 µM (inactive)
GI50 (LOX IMVI): 24.6 µM (inactive)
GI50 (TK-10): 31.3 µM (inactive)
GI50 (T47D): 0.449 µM (active)
GI50 (Malme-3M): 31.6 µM (inactive)
GI50 (SK-MEL-28): 65.6 µM (inactive)
GI50 (UO-31): 38.1 µM (inactive)
GI50 (Hs-578T): 2.7 µM (inactive)
GI50 (A498): 35.4 µM (inactive)
GI50 (SW-620): 41 µM (inactive)
GI50 (SF-268): 21.4 µM (inactive)
